Data set [1] has as its system burn wounds. Description: Burn wounds, 15% body surface, treatment started 50 days after burning (rats). In kind it is in vivo, Sprague-Dawley rats. To be noted: 15% burn, open wounds after 50 days placebo; 1% BAC-3 ointment, tapering schedule. An excerpt:
The wound surface areas tested were of two different sizes. One size to 7% of the body surface, which enables one to compare the rate of wound healing with different percentage of BAC-3 and the other size to 15% of the body surface, which is a sufficient size so that healing could not occur by contraction alone. On the other hand, the total wound surface area should not cause major systematic problems. The latter can be concluded from undisturbed weight gain of the animals. The standard animal burn was performed by techniques and device described by Walker. The burning devices were prepared using a model device ordered from U.S. Army Surgical Research Unit, Experimental Surgery, Army Medical Center, Fort Sam Houston, Tex. 78234. The devices had apertures which enabled exposure of 7% and 15% of the total rat skin surface. The surface of the skin was measured for every animal using Mech's formula: A=kW^2/3; A=surface area in cm^2; W=body weight in grams; k=10.
Method of burning. Each animal was anesthetized with sodium pentobarbital administered i/p (5 mg/25 g). (Producer: Veterinary Laboratory Inc. Lenexa, Kans.). The hair over the dorsum was clipped with animal clippers. The animal was placed supine in the burning device and the extremities were tied; the malleable retractor was placed over the animal and secured snugly with plastic straps. […]

The subject of data set [2] is burn wounds. Description: Burn wounds, 7% body surface, topical treatment (rats). Format: in vivo, Sprague-Dawley rats. To be noted: for mean value of collagen tissue: histopathology day 45; for mean value of collagen concentration relative to placebo group 1 D taken as 100%: day 45. The method, then:
The wounding of animals was performed according to the Protocol for Animal Use and Care at the University of California-Davis (hereafter UC-Davis). The entire animal protocol required 70 Sprague-Dawley rats: 30 rats for incision wounds and 40 rats for burn wounds. Among them 36 rats were burned over 7% of their skin and 4 rats were burned over 15% of their skin. Incision wounds of whole skin and burn wounds were treated topically with 2 test doses of the pharmaceutical preparation of di-rhamnolipid BAC-3. […] D.E.A. Hamburg); 23.8 g Lanolinum (Producer I.O.I. Hamburg); 4.7 g Cholesterin (Producer: Solvay, Wiena, Austria); Water Number: 320); or b). 1%; 0.1% active rhamnolipid (BAC-3) with antiseptic (chlorhexidine hydrochloride-[…]). Eucerin with BAC-3 was administrated twice daily during healing. The same experiment had one control group without the treatment, and one control group which was treated with ointment+1% chlorhexidine hydrochloride. During the experiment, animal body weight and behavior was checked every third day, and photographs were taken periodically. Burn wounds. The consecutive burn wounds should ideally be identical in depth and extent. The standard method defines the size and location of the burn wound, the temperature gradient, duration of exposure and method of applying the burn. The wound surface areas tested were of two different sizes. One size to 7% of the body surface, which enables one to compare the rate of wound healing with different percentage of BAC-3 and the other size to 15% of the body surface, which is a sufficient size so that healing could not occur by contraction alone. On the other hand, the total wound surface area should not cause major systematic problems. The latter can be concluded from undisturbed weight gain of the animals. The standard animal burn was performed by techniques and device described by Walker. The burning devices were prepared using a model device ordered from U.S. Army Surgical Research Unit, Experimental Surgery, Army Medical Center, Fort Sam Houston, Tex. 78234. […] The surface of the skin was measured for every animal using Mech's formula: A=kW^2/3; A=surface area in cm^2; W=body weight in grams; k=10. Method of burning. Each animal was anesthetized with sodium pentobarbital administered i/p (5 mg/25 g). (Producer: Veterinary Laboratory Inc. Lenexa, Kans.). The hair over the dorsum was clipped with animal clippers. The animal was placed supine in the burning device and the extremities were tied; the malleable retractor was placed over the animal and secured snugly with plastic straps. The entire device was then picked up by the retractor ends with forceps and the exposed area was immersed in boiling water. Ten seconds of exposure was sufficient to produce a full-thickness burn. On removal from the water, the dorsum was quickly dried by rolling on a towel and the animal was released and individually caged. This procedure produced a uniform burn with sharp margins. On post burn days 7, 14 and 45, animals were sacrificed by overdose of sodium pentobarbital and skin specimens were taken for histopathology. Specimens included the wound bed as well as the healthy skin of the wound margins. The specimens were fixed, and two stainings were routinely performed: Hematoxylin-Eosin (H&E) for microscopic evaluation, Verhoeff's staining for a better visualization of the crust and the regenerating dermis, and the alpha smooth muscle acting to identify the myofibroblasts. Microscopic findings were interpreted by a veterinarian pathologist. During the microscopic and macroscopic observations, four wound healing parameters were evaluated: crust formation, re-epithelialization, formation of granulation tissue and inflammation. 36 rats were divided into 6 groups. Each group had six animals. After burning rats according to the above-described procedure, each rat was caged individually. […]

For the compound `CCCCCCCC(CC(=O)O)OC(=O)CC(CCCCCCC)OC1OC(C)C(O)C(O)C1OC1OC(C)C(O)C(O)C1O` [BAC-3, (α-L-rhamnopyranosyl-(1,2)-α-L-rhamnopyranosyl)-3-hyroxydecanoyl-3-hydroxydecanoic acid], the “time to whole epithelization in all animals” value in the data set with burn wounds [1] stood at 30 days. Also, the “body weights among the treatment groups” value in the data set on burn wounds [2] (1% and 0.1% BAC-3 in eucerin vs vehicle, 45 days) is listed as “no significant differences”. The “rate of burn wound closure (decrease in wound size) vs vehicle alone” value in the data set on burn wounds [2] (7% burn, 0.1% BAC-3 in eucerin twice daily, no chlorhexidine, FIG. 1) is given as “significantly faster”. In addition, the “burn wound size (distance across wound edges) vs vehicle alone” value in the data set with burn wounds [2] (7% burn, 0.1% BAC-3 in eucerin, days 14, 21 and 28, p<0.05 by ANOVA, FIG. 2) is “significantly smaller”. Further, the “crust formation, difference between groups” value in the data set on burn wounds [2] (7% burn, BAC-3 1% or 0.1% ointment with or without chlorhexidine vs placebo, 45 days) is reported as “no significant differences”. Moreover, the granulation tissue result with burn wounds [2] (7% burn, group 1-A, 1% BAC-3 in ointment twice daily) is given as “prominently developed”; with burn wounds [2] (7% burn, group 2-A, 1% BAC-3 in ointment plus 1% chlorhexidine hydrochloride twice daily) it was “prominently developed”. Moreover, the “re-epithelization in the middle part of the burn wounds” value with burn wounds [2] (7% burn, group 1-B, 0.1% BAC-3 in ointment twice daily) is recorded as “faster”; in the data set on burn wounds [2] (7% burn, group 2-B, 0.1% BAC-3 in ointment plus 1% chlorhexidine hydrochloride twice daily) it was “faster”. Moreover, the “mean value of collagen tissue” value is 8.48 mm^2 with burn wounds [2] (7% burn, group 1 A, 1% BAC-3 ointment, no chlorhexidine) and 5.15 mm^2 in the data set with burn wounds [2] (7% burn, group 1 B, 0.1% BAC-3 ointment, no chlorhexidine). For the same compound, in the data set on burn wounds [2] (group 1-A, 1% BAC-3 in ointment, compared to the other groups), the “hair growth during the healing period” value is reported as “very prominent”. Moreover, the “mean value of collagen concentration relative to placebo group 1 D taken as 100%” value was 131.26% in the data set with burn wounds [2] (group 1 A, 1% BAC-3) and 79.72% with burn wounds [2] (group 1 B, 0.1% BAC-3).

These data come from patent publication US7129218B2, “Use of rhamnolipids in wound healing, treatment and prevention of gum disease and periodontal regeneration” (Paradigm Biomedical, Inc., priority 1999, dated 2006).
